In patent publication US20120178766A1, “FUROPYRIMIDINEDIONE DERIVATIVES AS TRPAI MODULATORS” (priority 2009, published 2012):

What was measured:
human TRPA1 = molecular target: T1, human TRPA1 (Homo sapiens, UniProt O75762); assay: 45Calcium uptake assay: inhibition of AITC induced cellular uptake of radioactive calcium, human TRPA1 expressing CHO cells; assay type: cell-based; conditions: AITC 30 μM; for inhibition at 1 µM: 1.0 μM compound, read-out: human TRPA1 Percentage inhibition at 1.0 μM; for inhibition at 10 µM: 10.0 μM compound, read-out: human TRPA1 Percentage inhibition at 10.0 μM
T1 construct: expressed in transfected cells; host or cells: CHO cells (G-418 selection)
T1 sequence (O75762 whole entry): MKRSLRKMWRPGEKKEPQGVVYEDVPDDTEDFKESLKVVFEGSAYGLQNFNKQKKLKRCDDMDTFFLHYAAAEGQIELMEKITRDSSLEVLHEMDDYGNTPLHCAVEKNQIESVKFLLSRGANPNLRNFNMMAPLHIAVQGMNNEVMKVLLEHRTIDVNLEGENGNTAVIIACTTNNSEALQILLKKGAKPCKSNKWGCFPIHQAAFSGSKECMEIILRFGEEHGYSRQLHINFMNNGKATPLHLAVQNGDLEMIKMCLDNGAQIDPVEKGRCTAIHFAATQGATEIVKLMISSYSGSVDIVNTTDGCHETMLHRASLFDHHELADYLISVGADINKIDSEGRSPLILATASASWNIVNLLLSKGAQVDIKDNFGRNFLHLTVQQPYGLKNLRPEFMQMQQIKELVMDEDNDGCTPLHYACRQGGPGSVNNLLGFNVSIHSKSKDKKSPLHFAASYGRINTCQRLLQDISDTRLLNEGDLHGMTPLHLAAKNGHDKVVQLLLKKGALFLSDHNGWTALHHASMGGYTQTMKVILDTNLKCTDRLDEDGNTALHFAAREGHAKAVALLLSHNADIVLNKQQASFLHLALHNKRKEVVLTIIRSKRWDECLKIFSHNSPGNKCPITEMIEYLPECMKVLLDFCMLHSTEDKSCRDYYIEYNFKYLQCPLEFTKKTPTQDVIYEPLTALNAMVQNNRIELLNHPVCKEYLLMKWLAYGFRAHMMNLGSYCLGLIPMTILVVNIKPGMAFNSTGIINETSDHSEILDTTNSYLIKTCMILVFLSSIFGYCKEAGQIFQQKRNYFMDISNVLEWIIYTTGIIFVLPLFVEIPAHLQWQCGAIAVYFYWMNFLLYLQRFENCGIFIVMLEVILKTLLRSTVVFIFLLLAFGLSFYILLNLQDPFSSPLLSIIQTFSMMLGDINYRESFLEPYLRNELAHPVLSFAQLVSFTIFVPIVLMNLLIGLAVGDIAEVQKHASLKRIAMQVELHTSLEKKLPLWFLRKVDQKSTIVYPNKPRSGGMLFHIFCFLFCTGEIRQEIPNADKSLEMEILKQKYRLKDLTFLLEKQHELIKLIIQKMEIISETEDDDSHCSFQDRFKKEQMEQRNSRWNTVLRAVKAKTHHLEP
Description: The illustrative examples of the present invention are screened for TRPA1 activity according to a modified procedure described in (a) Tóth, A. et al. Life Sciences, 2003, 73, 487-498. (b) McNamara C, R. et al, Proc. Natl. Acad. Sci. U.S.A., 2007, 104, 13525-13530. The screening of the compounds can be carried out by other methods and procedures known to persons skilled in the art.
(§1) Screening for TRPA1 Antagonist Using the ^45Calcium Uptake Assay:
(§2) The inhibition of TRPA1 receptor activation was measured as inhibition of allyl isothiocyanate (AITC) induced cellular uptake of radioactive calcium.
Test compounds were dissolved in 100% DMSO to prepare 10 mM stock and then diluted using plain medium with 0.1% BSA and 1.8 mM CaCl2 to get the desired concentration. The final concentration of DMSO in the reaction was 0.5% (v/v). Human TRPA1 expressing CHO cells were grown in F-12 DMEM medium with 10% FBS, 1% penicillin-streptomycin solution, and 400 μg/ml of G-418. Rat TRPA1 expressing CHO cells were grown in F-12 DMEM medium with 10% FBS, 1% penicillin-streptomycin solution, and 400 μg/ml of Zeocin. Cells were seeded 24 h prior to the assay in 96 well plates so as to get ˜50,000 cells per well on the day of experiment. Cells were treated with the test compounds for 10 minutes followed by the addition of AITC at a final concentration of 30 μM (for human TRPA1) and/or 10 μM (for rat TRPA1) and 5 μCi/ml ^45Ca^+2 for 3 minutes. Cells were washed and lysed using a buffer containing 1% Triton X-100, 0.1% deoxycholate and 0.1% SDS. Radioactivity in the lysate was measured in a Packard TopCount after addition of liquid scintillant. (Toth et al, Life Sciences (2003) 73, 487-498; McNamara C R et al, Proceedings of the National Academy of Sciences, (2007) 104, 13525-13530).
(§3) Concentration response curves were plotted as a % of maximal response obtained in the absence of test antagonist. IC50 values can be calculated from concentration response curve by nonlinear regression analysis using GraphPad PRISM software.

rat TRPA1 = molecular target: T2, rat TRPA1 (Rattus norvegicus, UniProt Q6RI86); assay: 45Calcium uptake assay: inhibition of AITC induced cellular uptake of radioactive calcium, rat TRPA1 expressing CHO cells; assay type: cell-based; conditions: AITC 10 μM; for inhibition at 10 µM: 10.0 μM compound, read-out: rat TRPA1 Percentage inhibition at 10.0 μM; for inhibition at 1 µM: read-out: rat TRPA1 Percentage inhibition; for IC50: class symbols
T2 construct: expressed in transfected cells; host or cells: CHO cells (Zeocin selection)
T2 sequence (Q6RI86 whole entry): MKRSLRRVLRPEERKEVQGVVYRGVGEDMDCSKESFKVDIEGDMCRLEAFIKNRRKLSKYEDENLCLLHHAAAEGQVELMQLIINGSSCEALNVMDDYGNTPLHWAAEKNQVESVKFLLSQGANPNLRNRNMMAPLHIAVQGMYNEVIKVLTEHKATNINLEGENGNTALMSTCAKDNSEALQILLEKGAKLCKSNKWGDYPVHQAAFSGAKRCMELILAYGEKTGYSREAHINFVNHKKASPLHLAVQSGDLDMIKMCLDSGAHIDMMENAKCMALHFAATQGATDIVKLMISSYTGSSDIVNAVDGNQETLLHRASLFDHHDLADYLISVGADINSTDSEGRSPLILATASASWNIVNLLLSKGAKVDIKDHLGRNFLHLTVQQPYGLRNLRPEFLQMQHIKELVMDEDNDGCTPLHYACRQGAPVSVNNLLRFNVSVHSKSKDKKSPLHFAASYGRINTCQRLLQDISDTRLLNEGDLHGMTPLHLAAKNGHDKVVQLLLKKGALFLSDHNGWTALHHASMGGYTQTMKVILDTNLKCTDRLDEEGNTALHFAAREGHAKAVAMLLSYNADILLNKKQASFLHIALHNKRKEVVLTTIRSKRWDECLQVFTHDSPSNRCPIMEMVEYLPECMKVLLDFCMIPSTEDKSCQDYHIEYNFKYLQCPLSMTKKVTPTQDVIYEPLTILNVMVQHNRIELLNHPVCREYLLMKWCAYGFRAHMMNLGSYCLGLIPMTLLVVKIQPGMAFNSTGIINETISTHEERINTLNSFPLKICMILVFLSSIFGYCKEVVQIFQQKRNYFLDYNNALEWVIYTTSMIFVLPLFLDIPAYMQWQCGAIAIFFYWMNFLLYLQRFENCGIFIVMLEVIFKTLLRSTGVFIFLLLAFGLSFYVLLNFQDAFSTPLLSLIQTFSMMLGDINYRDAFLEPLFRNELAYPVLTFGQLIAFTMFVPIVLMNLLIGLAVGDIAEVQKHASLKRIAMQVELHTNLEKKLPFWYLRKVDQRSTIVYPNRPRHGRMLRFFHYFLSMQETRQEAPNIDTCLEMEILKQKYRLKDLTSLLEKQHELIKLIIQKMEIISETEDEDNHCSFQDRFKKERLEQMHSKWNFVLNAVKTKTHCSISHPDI
Protocol: as §1, §2
Test compounds were dissolved in 100% DMSO to prepare 10 mM stock and then diluted using plain medium with 0.1% BSA and 1.8 mM CaCl2 to get the desired concentration. The final concentration of DMSO in the reaction was 0.5% (v/v). […] Rat TRPA1 expressing CHO cells were grown in F-12 DMEM medium with 10% FBS, 1% penicillin-streptomycin solution, and 400 μg/ml of Zeocin. […] Cells were treated with the test compounds for 10 minutes followed by the addition of AITC at a final concentration of 30 μM (for human TRPA1) and/or 10 μM (for rat TRPA1) and 5 μCi/ml ^45Ca^+2 for 3 minutes. Cells were washed and lysed using a buffer containing 1% Triton X-100, 0.1% deoxycholate and 0.1% SDS. Radioactivity in the lysate was measured in a Packard TopCount after addition of liquid scintillant.
as §3

IC50 (human TRPA1; class symbols) [nM] | inhibition at 10 µM (rat TRPA1) [%] | inhibition at 1 µM (rat TRPA1) [%] | inhibition at 1 µM (human TRPA1) [%] | inhibition at 10 µM (human TRPA1) [%] | IC50 (rat TRPA1) [nM] | IC50 (human TRPA1; numeric values) [nM] | Structure (SMILES)
> 100 | 100 | 96.7 |  |  |  |  | Cn1c(=O)c2c(CC(=O)Nc3ccc(Oc4ccc(C(F)(F)F)cc4)cc3)coc2n(C)c1=O [Example 1, N1-[4-(4-Trifluoromethylphenoxy)phenyl]-2-(1,3-dimethyl-2,4-dioxo-1,2,3,4-tetrahydrofuro[2,3-d]pyrimidin-5-yl)acetamide]
 |  |  | 17.7 | 28.4 |  |  | Cn1c(=O)c2c(CC(=O)NCCc3ccc(Cl)cc3Cl)coc2n(C)c1=O [Example 2, N1-[2-(2,4-Dichlorophenyl)ethyl]-2-(1,3-dimethyl-2,4-dioxo-1,2,3,4-tetrahydrofuro[2,3-d]pyrimidin-5-yl)acetamide]
 |  |  | 6.44 | 45.8 |  |  | Cn1c(=O)c2c(CC(=O)Nc3nc(C(F)(F)F)cs3)coc2n(C)c1=O [Example 3, N1-[4-(Trifluoromethyl)-1,3-thiazol-2-yl]-2-(1,3-Dimethyl-2,4-dioxo-1,2,3,4-tetrahydrofuro[2,3-d]pyrimidin-5-yl)acetamide]
 |  |  | 14.5 | 57.3 |  |  | Cn1c(=O)c2c(CC(=O)Nc3nc4c(F)cc(F)cc4s3)coc2n(C)c1=O [Example 4, N-(4,6-Difluoro-1,3-benzothiazol-2-yl)-2-(1,3-dimethyl-2,4-dioxo-1,2,3,4-tetrahydrofuro[2,3-d]pyrimidin-5-yl)acetamide]
 |  |  | 27 | 99.8 |  |  | CC(C)Cc1ccc(-c2csc(NC(=O)Cc3coc4c3c(=O)n(C)c(=O)n4C)n2)cc1 [Example 5, N1-[4-(4-Isobutylphenyl)-1,3-thiazol-2-yl]-2-(1,3-dimethyl-2,4-dioxo-1,2,3,4-tetrahydrofuro[2,3-d]pyrimidin-5-yl)acetamide]
< 50 |  |  | 100 | 99.6 |  |  | Cn1c(=O)c2c(CC(=O)Nc3nc(-c4ccc(C(F)(F)F)cc4)cs3)coc2n(C)c1=O [Example 6, N1-{4-[4-(Trifluoromethyl)phenyl]-1,3-thiazol-2-yl}-2-(1,3-dimethyl-2,4-dioxo-1,2,3,4-tetrahydrofuro[2,3-d]pyrimidin-5-yl)acetamide]
< 50 |  |  | 98.8 | 99.8 |  |  | Cn1c(=O)c2c(CC(=O)Nc3nc(-c4cccc(C(F)(F)F)c4)cs3)coc2n(C)c1=O [Example 7, N1-{4-[3-(Trifluoromethyl)phenyl]-1,3-thiazol-2-yl}-2-(1,3-dimethyl-2,4-dioxo-1,2,3,4-tetrahydrofuro[2,3-d]pyrimidin-5-yl)acetamide]
< 50 | 100 | 100 | 93.2 | 98.8 | < 50 |  | Cn1c(=O)c2c(CC(=O)Nc3nc(-c4ccc(OC(F)(F)F)cc4)cs3)coc2n(C)c1=O [Example 8, N1-[4-(4-Trifluorormethoxyphenyl)-1,3-thiazol-2-yl]-2-(1,3-dimethyl-2,4-dioxo-1,2,3,4-tetrahydrofuro[2,3-d]pyrimidin-5-yl)acetamide]
< 50 |  |  | 99.3 | 100 |  |  | Cn1c(=O)c2c(CC(=O)Nc3nc(-c4cccc(OC(F)(F)F)c4)cs3)coc2n(C)c1=O [Example 9, N1-[4-(3-Trifluorormethoxyphenyl)-1,3-thiazol-2-yl]-2-(1,3-dimethyl-2,4-dioxo-1,2,3,4-tetrahydrofuro[2,3-d]pyrimidin-5-yl)acetamide]
< 50 | 100 | 97.5 | 98.5 | 97.7 | 50 to 100 |  | Cn1c(=O)c2c(CC(=O)Nc3nc(-c4ccc(F)c(Br)c4)cs3)coc2n(C)c1=O [Example 10, N1-[4-(3-Bromo-4-fluorophenyl)-1,3-thiazol-2-yl]-2-(1,3-dimethyl-2,4-dioxo-1,2,3,4-tetrahydrofuro[2,3-d]pyrimidin-5-yl)acetamide]
50 to 100 |  |  | 98.8 | 99.4 |  |  | Cn1c(=O)c2c(CC(=O)Nc3nc(-c4ccc(F)c(F)c4)cs3)coc2n(C)c1=O [Example 11, N1-[4-(3,4-Difluorophenyl)-1,3-thiazol-2-yl]-2-(1,3-dimethyl-2,4-dioxo-1,2,3,4-tetrahydrofuro[2,3-d]pyrimidin-5-yl)acetamide]
> 100 |  |  | 97.9 | 98.4 |  |  | Cn1c(=O)c2c(CC(=O)Nc3nc(-c4ccc(F)cc4F)cs3)coc2n(C)c1=O [Example 12, N1-[4-(2,4-Difluorophenyl)-1,3-thiazol-2-yl]-2-(1,3-dimethyl-2,4-dioxo-1,2,3,4-tetrahydrofuro[2,3-d]pyrimidin-5-yl)acetamide]
< 50 |  |  | 98.5 | 99.4 | > 100 |  | Cn1c(=O)c2c(CC(=O)Nc3nc(-c4ccc(Cl)c(Cl)c4)cs3)coc2n(C)c1=O [Example 13, N1-[4-(3,4-Dichlorophenyl)-1,3-thiazol-2-yl]-2-(1,3-dimethyl-2,4-dioxo-1,2,3,4-tetrahydrofuro[2,3-d]pyrimidin-5-yl)acetamide]
< 50 | 100 | 100 | 99.4 | 99.7 | < 50 |  | Cn1c(=O)c2c(CC(=O)Nc3nc(-c4ccc(C(F)(F)F)c(F)c4)cs3)coc2n(C)c1=O [Example 14, N1-{4-[3-Fluoro-4-(trifluoromethyl)phenyl]-1,3-thiazol-2-yl}-2-(1,3-dimethyl-2,4-dioxo-1,2,3,4-tetrahydrofuro[2,3-d]pyrimidin-5-yl)acetamide]
< 50 |  |  | 99.3 | 99.8 |  |  | Cn1c(=O)c2c(CC(=O)Nc3nc(-c4ccc(OC(F)F)c(Br)c4)cs3)coc2n(C)c1=O [Example 25, N1-[4-(3-Bromo-4-difluoromethoxyphenyl)-1,3-thiazol-2-yl]-2-(1,3-dimethyl-2,4-dioxo-1,2,3,4-tetrahydrofuro[2,3-d]pyrimidin-5-yl)acetamide]
< 50 |  |  | 97.9 | 98.1 |  |  | Cn1c(=O)c2c(CC(=O)Nc3nc(-c4cc(F)c(F)cc4F)cs3)coc2n(C)c1=O [Example 33, N1-[4-(2,4,5,-Trifluorophenyl)-1,3-thiazol-2-yl]-2-(1,3-dimethyl-2,4-dioxo-1,2,3,4-tetrahydrofuro[2,3-d]pyrimidin-5-yl)acetamide]
 |  |  |  |  |  | 247 | Cc1oc2c(c1CC(=O)Nc1nc(-c3cc(F)c(Cl)cc3Cl)cs1)c(=O)n(C)c(=O)n2C [Example 79, N1-[4-(2,4-Dichloro-5-fluorophenyl)-1,3-thiazol-2-yl]-2-(1,3,6-trimethyl-2,4-dioxo-1,2,3,4-tetrahydrofuro[2,3-d]pyrimidin-5-yl)acetamide]

Structure (SMILES) | IC50 (human TRPA1; class symbols) [nM] | inhibition at 10 µM (rat TRPA1) [%] | inhibition at 1 µM (rat TRPA1) [%] | inhibition at 1 µM (human TRPA1) [%] | inhibition at 10 µM (human TRPA1) [%] | IC50 (rat TRPA1) [nM] | IC50 (human TRPA1; numeric values) [nM]
CC(C)COc1ccc(-c2csc(NC(=O)Cc3coc4c3c(=O)n(C)c(=O)n4C)n2)cc1Br [Example 29, N1-[4-(3-Bromo-4-isobutoxyphenyl)-1,3-thiazol-2-yl]-2-(1,3-dimethyl-2,4-dioxo-1,2,3,4-tetrahydrofuro[2,3-d]pyrimidin-5-yl)acetamide] | > 100 |  |  | 98.6 | 99.8 |  | 
CC(C)CCOc1c(F)cc(-c2csc(NC(=O)Cc3coc4c3c(=O)n(C)c(=O)n4C)n2)cc1F [Example 45, N1-{4-[3,5-Difluoro-4-(3-methylbutoxy)phenyl]-1,3-thiazol-2-yl}-2-(1,3-dimethyl-2,4-dioxo-1,2,3,4-tetrahydrofuro[2,3-d]pyrimidin-5-yl)acetamide] | < 50 |  |  | 90.7 | 98.1 |  | 
